In US20260008760A1, “DIPEPTIDYL PEPTIDASE 1 INHIBITORS AND USES THEREOF” (Insmed Incorporated, priority 2024, published 2026):

Experiments:
DPP1 in HL-60 cells = DPP1 in HL-60 cells (Homo sapiens, UniProt P53634); experiment: DPP1 Cell IC50 assay; type: cell-based; design: host or cells: HL-60 cells; conditions: 60 min pre-incubation, H-Gly-Phe-AFC substrate, average of n runs, read-out: Avg. IC50 (DPP1 Cell IC50 value ranges)
Protocol: Example 99. DPP1 Cell IC50 assay
HL-60 cells (ATCC; Manassas, VA) were maintained in RPMI-1640 supplemented with 20% heat-inactivated FBS and 1× Antibiotic Antimycotic (Cytiva; Marlborough, MA). Media was changed every three to four days and cells were not allowed to exceed 1×10^6 cells per mL. Prior to assay, cells were collected by centrifugation at 500 rcf for 3 minutes, resuspended in PBS and counted. Cells were diluted in PBS to a concentration of 5×10^5 live cells per mL and transferred to black 96-well plates for assay, 60 μL per well. Test articles were diluted in PBS plus 0.5% DMSO, and 20 μL was added to each assay well. Compound was allowed to pre-incubate with cells with gentle shaking at 100 rpm for 60 minutes at 37° C. in a cell culture incubator maintained at 5% CO2, after which 20 μL of 500 μM H-Gly-Phe-AFC substrate (MP Biomedicals; Solon, OH) was added to each well. Plates were returned to the incubator with shaking at 100 rpm for 30 minutes, after which fluorescence was measured at Excitation/Emission 400/505 nm. % Inhibition was calculated from RFU values compared to control cell wells that received only PBS plus 0.5% DMSO. IC50 values for each compound were calculated via the XLFit (IDBS Version 5.3.1.3) Add-On to Microsoft Excel using the four parameter fit equation y=(A+((B−A)/(1+((C/x)^D)))), which appears as equation number 205 (4 Parameter Logistic Model or Sigmoidal Dose-Response Model) in XLFit. IC50 was defined as the compound concentration at which 50% of enzyme activity was inhibited when compared to the no-compound control.

human DPP1 enzyme = human DPP1 enzyme (Homo sapiens, UniProt P53634); experiment: Human DPP1 Enzyme IC50 Assay; type: biochemical; design: was first proteolytically processed into its mature form using recombinant human cathepsin L; purchased R&D Systems; conditions: activated recombinant human DPP1, 400 μM H-Gly-Arg-AMC, 10 minutes pre-incubation at 37° C., pH 6.0; average of n runs; read-out: Avg. IC50 (Human DPP1 enzyme IC50 value ranges)
Protocol: Example 97. Human DPP1 Enzyme IC50 Assay
Recombinant human DPP1 enzyme (R&D Systems; Minneapolis, MN) was first proteolytically processed into its mature form using recombinant human cathepsin L (R&D Systems) in a buffer consisting of 20 mM citric acid pH 4.5, 150 mM NaCl, 1 mM EDTA and 10 mM DTT. Test articles were applied to activated human DPP1 enzyme in Assay Buffer (25 mM MES pH 6.0, 50 mM NaCl, 5 mM DTT) in a total reaction volume of 125 μL. 25 μL of compound in Assay Buffer plus 5% DMSO was first added to 50 μL of activated human DPP1 enzyme at a concentration of 1 ng/μL and allowed to pre-incubate for 10 minutes at 37° C. after which 50 μL of 1000 μM H-Gly-Arg-AMC substrate (Bachem; St. Torrance, CA) was added, giving final substrate concentration of 400 μM and a final DMSO concentration of 1%. Substrate cleavage was measured for 90 minutes at 37° C., with fluorescence at Excitation/Emission 350/450 nm measured every 5 minutes. DPP1 concentration was interpolated based on its activity relative to a standard curve of activated human recombinant DPP1 enzyme. IC50 values for each compound were calculated via the XLFit (IDBS Version 5.3.1.3) Add-On to Microsoft Excel using the four parameter fit equation y={A+[(B−A)]/[1+((C/x)^D)]}, which appears as equation number 205 (4 Parameter Logistic Model or Sigmoidal Dose-Response Model) in XLFit. Default constraints were used for each Parameter. IC50 was defined as the compound concentration at which 50% of enzyme activity was inhibited when compared to the no-compound control.

Chain of DPP1 in HL-60 cells (P53634 25-463): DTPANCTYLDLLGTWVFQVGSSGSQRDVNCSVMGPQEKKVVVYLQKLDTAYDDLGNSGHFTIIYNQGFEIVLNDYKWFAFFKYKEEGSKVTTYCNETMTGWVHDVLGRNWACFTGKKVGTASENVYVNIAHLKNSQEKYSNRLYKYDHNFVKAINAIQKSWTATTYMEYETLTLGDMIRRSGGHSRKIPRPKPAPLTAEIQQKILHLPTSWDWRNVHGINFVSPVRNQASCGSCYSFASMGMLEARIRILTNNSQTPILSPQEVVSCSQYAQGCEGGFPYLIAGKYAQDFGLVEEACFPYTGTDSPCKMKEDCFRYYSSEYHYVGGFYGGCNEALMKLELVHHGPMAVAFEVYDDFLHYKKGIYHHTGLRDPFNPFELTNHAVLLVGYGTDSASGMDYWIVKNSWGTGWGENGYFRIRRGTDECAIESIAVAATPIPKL
Chain of human DPP1 enzyme (P53634 25-134 limits assumed): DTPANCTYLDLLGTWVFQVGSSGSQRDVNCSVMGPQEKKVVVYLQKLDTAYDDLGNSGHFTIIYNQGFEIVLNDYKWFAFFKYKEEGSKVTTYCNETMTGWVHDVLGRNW
Chain of human DPP1 enzyme (P53634 231-394 limits assumed): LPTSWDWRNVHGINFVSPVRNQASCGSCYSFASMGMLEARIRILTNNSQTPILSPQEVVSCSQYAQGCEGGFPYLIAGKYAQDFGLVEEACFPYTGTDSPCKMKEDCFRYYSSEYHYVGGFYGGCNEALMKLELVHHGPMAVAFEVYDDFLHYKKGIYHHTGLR
Chain of human DPP1 enzyme (P53634 395-463 limits assumed): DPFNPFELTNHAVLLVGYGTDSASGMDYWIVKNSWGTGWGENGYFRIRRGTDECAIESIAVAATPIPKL

| SMILES | IC50 (DPP1 in HL-60 cells) [nM] | IC50 (human DPP1 enzyme) [nM] |
| --- | --- | --- |
| Cn1nnc2cc3c(cc21)-c1cc(F)c(C[C@@H](C#N)NC(=O)[C@@H]2CNCCCO2)cc1OC3 [Compound C34] | 1 to 2.5 | < 5 |
| CO[C@H]1CCO[C@H](C(=O)NC(C#N)Cc2cc3c(cc2F)-c2cc(C4COC4)c(F)cc2CO3)CNC1 (mixture of isomers) [Compound B15, (2S,6S)—N-{1-cyano-2-[2,8-difluoro-9-(oxetan-3-yl)-6H-benzo[c]chromen-3-yl]ethyl}-6-methoxy-1,4-oxazocane-2-carboxamide] | 1 to 2.5 | < 5 |
| C[C@@H]1NC[C@@H](C(=O)N[C@H](C#N)Cc2ccc(-c3ccc4c(c3)CCC(=O)N4C)cc2)OC[C@@H]1O [Compound A148] | > 2.5 | > 15 |
| CO[C@@H]1CCNC[C@@H](C(=O)NC(C#N)Cc2cnc(-c3ccc4c(F)nn(C)c4c3)s2)OC1 (mixture of isomers) [Compound A38, (2S,7R)—N-{1-cyano-2-[2-(3-fluoro-1-methylindazol-6-yl)-1,3-thiazol-5-yl]ethyl}-7-methoxy-1,4-oxazocane-2-carboxamide] | 1 to 2.5 | 5 to 15 |
| CO[C@H]1CCO[C@H](C(=O)N[C@H](C#N)Cc2ccc(-c3ccc(C#N)cc3)cc2)CNC1 [Compound F1, (2S,6S)—N-[(1S)-1-cyano-2-{4′-cyano-[1,1′-biphenyl]-4-yl}ethyl]-6-methoxy-1,4-oxazocane-2-carboxamide] | > 2.5 | > 15 |
| N#C[C@H](Cc1ccc(-c2csc(-c3nnc(N)o3)c2)cc1)NC(=O)[C@@H]1CNCCCO1 [Compound D2, (2S)—N-[(1S)-2-{4-[5-(5-amino-1,3,4-oxadiazol-2-yl)thiophen-3-yl]phenyl}-1-cyanoethyl]-1,4-oxazepane-2-carboxamide] | > 2.5 | > 15 |
| COC1CO[C@H](C(=O)N[C@H](C#N)Cc2ccc(-c3ccc4c(c3)C3(CC4)CCN(C)CC3)cc2F)CNC1C (stereo partly drawn) [Compound E6, (2S)—N-[(1S)-1-cyano-2-(2-fluoro-4-{1′-methyl-2,3-dihydrospiro[indene-1,4′-piperidin]-6-yl}phenyl)ethyl]-6-methoxy-5-methyl-1,4-oxazepane-2-carboxamide] | > 2.5 | < 5 |
| CO[C@@H]1CCNC[C@@H](C(=O)N[C@H](C#N)Cc2ncc(-c3ccc4c(F)nn(C)c4c3)s2)OC1 [Compound A36, (2S,7R)—N-[(1S)-1-cyano-2-[5-(3-fluoro-1-methylindazol-6-yl)-1,3-thiazol-2-yl]ethyl]-7-methoxy-1,4-oxazocane-2-carboxamide] | > 2.5 | > 15 |
| N#C[C@H](Cc1ccc(-c2cc3ccncc3[nH]2)cc1)NC(=O)[C@@H]1CNCCCO1 [Compound A7, (2S)—N-[(1S)-1-cyano-2-(4-{1H-pyrrolo[2,3-c]pyridin-2-yl}phenyl)ethyl]-1,4-oxazepane-2-carboxamide] | > 2.5 | > 15 |
| N#C[C@H](Cc1ccc(-c2ccc3c(c2)[C@@]2(CCCN(C4CCCCC4)C2)CS3)cc1)NC(=O)[C@@H]1CNCCCO1 [Compound I9] | > 2.5 | 5 to 15 |
| CO[C@@H]1CCNC[C@@H](C(=O)NC(C#N)Cc2cnc(-c3ccc4c(n3)CCCN4)s2)OC1 (stereo partly drawn) [Compound A39, (2S,7R)—N-{1-cyano-2-[2-(5,6,7,8-tetrahydro-1,5-naphthyridin-2-yl)-1,3-thiazol-5-yl]ethyl}-7-methoxy-1,4-oxazocane-2-carboxamide] | > 2.5 | > 15 |
| N#C[C@H](Cc1ccc(-c2cnc3[nH]ccc3n2)cc1)NC(=O)[C@@H]1CNCCCO1 [Compound A16, (2S)—N-[(1S)-1-cyano-2-(4-{5H-pyrrolo[2,3-b]pyrazin-2-yl}phenyl)ethyl]-1,4-oxazepane-2-carboxamide] | – | > 15 |
| N#Cc1ccc(C23CC(C[C@@H](C#N)NC(=O)[C@@H]4CNCCCO4)(C2)C3)cc1 [Compound 2] | – | > 15 |
| Cn1c(=O)oc2ccc3c(c21)COc1cc(C[C@H](C#N)NC(=O)[C@@H]2CNCCCO2)c(F)cc1-3 [Compound C2-B] | – | > 15 |
| CO[C@@H]1CNC[C@@H](C(=O)N[C@H](C#N)Cc2ccc(-c3ccc4nnn(C)c4c3)cc2)OC1 [Compound H12-B] | 1 to 2.5 | < 5 |
| CO[C@@H]1CCNC[C@@H](C(=O)NC(C#N)Cc2cc3c(cc2F)-c2ccc(C#N)cc2CO3)OC1 (mixture of isomers) [Compound B11, (2S,7R)—N-(1-cyano-2-{8-cyano-2-fluoro-6H-benzo[c]chromen-3-yl}ethyl)-7-methoxy-1,4-oxazocane-2-carboxamide] | 1 to 2.5 | < 5 |
| N#Cc1ccc2c(c1)COc1cc(C[C@@H](C#N)NC(=O)[C@@H]3CNCCCCO3)c(F)cc1-2 (single isomer, unassigned) [Compound B8] | – | > 15 |
| N#C[C@H](Cc1ccc(-c2ccnc3nc(O)oc23)cc1)NC(=O)[C@@H]1CNCCCO1 [Compound A13, (2S)—N-[(1S)-1-cyano-2-(4-{2-hydroxy-[1,3]oxazolo[4,5-b]pyridin-7-yl}phenyl)ethyl]-1,4-oxazepane-2-carboxamide] | – | > 15 |
| Cn1nc(F)c2ccc(-c3ncc(C[C@@H](C#N)NC(=O)[C@@H]4CNCC[C@@H](F)CO4)s3)cc21 [Compound A172] | – | > 15 |
| N#Cc1ccc(C23CCC(C[C@@H](C#N)NC(=O)[C@@H]4CNCCCO4)(CC2)CC3)cc1 [Compound 1] | – | > 15 |
| N#C[C@H](Cc1ccc(C23CC(C#N)(C2)C3)cc1)NC(=O)[C@@H]1CNCCCO1 [Compound 3] | – | > 15 |
| N#C[C@H](Cc1ccc(-c2cc3c(O)ccnn3c2)cc1)NC(=O)[C@@H]1CNCCCO1 [Compound A15, (S)—N—((S)-1-cyano-2-(4-(4-hydroxypyrrolo[1,2-b]pyridazin-6-yl)phenyl)ethyl)-1,4-oxazepane-2-carboxamide] | – | > 15 |
| CO[C@H]1CCO[C@H](C(=O)N[C@H](C#N)Cc2cnc(-c3ccc4c(F)nn(C)c4c3)s2)CNC1 [Compound A170] | – | 5 to 15 |
| CN1Cc2cc(F)ccc2-c2ccc(C[C@@H](C#N)NC(=O)[C@@H]3CNCCCO3)cc2C1=O [Compound B3, (2S)—N-[(1S)-1-cyano-2-{13-fluoro-9-methyl-8-oxo-9-azatricyclo[9.4.0.0^{2,7}1]pentadeca-1(11),2,4,6,12,14-hexaen-5-yl}ethyl]-1,4-oxazepane-2-carboxamide] | – | > 15 |
| N#C[C@H](Cc1ccc(-c2cncc3[nH]c(=O)[nH]c23)cc1)NC(=O)[C@@H]1CNCCCO1 [Compound A17, (2S)—N-[(1S)-1-cyano-2-(4-{2-oxo-1H,3H-imidazo[4,5-c]pyridin-7-yl}phenyl)ethyl]-1,4-oxazepane-2-carboxamide] | – | > 15 |
| CO[C@H]1CCO[C@H](C(=O)N[C@H](C#N)Cc2ccc(-c3ccc4cnn(C5CCN(C)CC5)c4c3)cc2F)CNC1 [Compound H1] | – | < 5 |
| CN1CCC2(CCc3ccc4c(c32)COc2cc(CC(C#N)NC(=O)[C@@H]3CNCCCO3)c(F)cc2-4)CC1 (stereo partly drawn) [Compound C4, (2S)—N-(1-cyano-2-{8-fluoro-1′-methyl-2,4-dihydro-1H-spiro[indeno[4,5-c]chromene-3,4′-piperidin]-7-yl}ethyl)-1,4-oxazepane-2-carboxamide] | – | > 15 |
| CO[C@H]1CCO[C@H](C(=O)N[C@H](C#N)Cc2ccc(-c3ccc4cnn(C5CCN(C6COC6)CC5)c4c3)cc2F)CNC1 [Compound H2] | – | 5 to 15 |
